Experimental data: patent publication US12509459B2, “Inhibitors of NLRP3 inflammasome” (BioAge Labs, Inc., priority 2024, dated 2025)
pIC50: −log10 of the molar value.

Target: NLRP3 (Homo sapiens, UniProt Q96P20)
Test: THP-1 cell-based NLRP3 activation assay
Set-up: endogenous in cells; host or cells: THP-1 cells (PMA-differentiated, LPS-primed, nigericin-stimulated)
Conditions: PMA-differentiated THP-1 cells, LPS 100 ng/mL then 10 μM nigericin
Procedure: THP-1 cells are cultured in complete media (CM) until they reach logarithmic growth and achieve a viability >90%. CM is composed of RPMI-1640 (+Glutamax)/10% fetal bovine serum/55 μM β-mercaptoethanol/pen/strep. Cells are spun down and resuspended to 1,000,000 cells/mL in CM containing either 20 nM or 500 nM PMA. 150,000 cells (150 μL) are then added to each well of a 96-well TC plate and incubated for either 24 hr or 3 hr, respectively, in a standard cell culture incubator (37° C.; 5% CO2). After this incubation, the plate is tilted and media carefully removed. 200 μL of CM containing 100 ng/mL LPS is then added to the wells and the cells incubated an additional 3 hrs. The media is again removed and replaced with Opti-Mem medium containing pre-determined dilutions of test compounds in replicate wells. After a 30 min incubation, 10 μM nigericin (final concentration) in Opti-Mem medium with the corresponding concentration of compound is added to the wells for an additional 1 hr. Positive control wells contain 10 μM nigericin in Opti-Mem in the absence of test compound, while negative control wells contain Opti-Mem only. […] Once supernatants are removed, the relative viability of adherent cells in the 96-well TC plate are determined using a CellTiter-Glo® luminescent cell viability assay (Promega).

Chain of NLRP3 (Q96P20 whole entry): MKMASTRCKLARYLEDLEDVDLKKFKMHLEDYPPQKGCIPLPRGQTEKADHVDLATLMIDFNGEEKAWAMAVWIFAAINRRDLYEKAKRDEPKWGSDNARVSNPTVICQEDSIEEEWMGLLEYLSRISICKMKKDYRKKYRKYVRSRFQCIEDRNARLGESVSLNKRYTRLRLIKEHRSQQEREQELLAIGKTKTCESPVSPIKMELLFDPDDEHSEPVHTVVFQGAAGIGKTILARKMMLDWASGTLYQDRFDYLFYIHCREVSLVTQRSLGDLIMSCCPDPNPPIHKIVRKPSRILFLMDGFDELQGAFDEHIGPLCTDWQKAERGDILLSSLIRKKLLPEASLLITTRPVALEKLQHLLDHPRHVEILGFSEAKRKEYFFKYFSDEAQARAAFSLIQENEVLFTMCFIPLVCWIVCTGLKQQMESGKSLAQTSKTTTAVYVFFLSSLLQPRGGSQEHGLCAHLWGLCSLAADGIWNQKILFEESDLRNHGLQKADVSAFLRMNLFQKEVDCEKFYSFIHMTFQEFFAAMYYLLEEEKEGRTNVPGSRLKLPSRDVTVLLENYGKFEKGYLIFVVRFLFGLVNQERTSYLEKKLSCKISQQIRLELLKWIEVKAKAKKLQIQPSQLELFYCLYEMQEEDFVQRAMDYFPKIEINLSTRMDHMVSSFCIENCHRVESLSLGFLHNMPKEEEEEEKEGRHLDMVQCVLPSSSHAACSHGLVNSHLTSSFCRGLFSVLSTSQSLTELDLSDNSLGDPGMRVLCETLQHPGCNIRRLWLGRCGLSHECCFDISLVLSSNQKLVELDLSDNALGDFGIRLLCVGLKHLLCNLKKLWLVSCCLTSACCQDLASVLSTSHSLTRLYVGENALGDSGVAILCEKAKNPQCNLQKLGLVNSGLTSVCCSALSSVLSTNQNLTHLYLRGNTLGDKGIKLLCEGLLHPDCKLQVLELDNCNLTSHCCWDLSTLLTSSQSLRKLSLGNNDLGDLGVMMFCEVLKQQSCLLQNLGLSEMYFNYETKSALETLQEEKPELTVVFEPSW

With `CCOc1cc(C(=O)N(C)[C@@H](c2cncc3cn[nH]c23)C2CN(CC)C2)ccc1-c1cccc(Cl)c1` [Compound 172] as the compound, how does the pIC50 read?
Its pIC50 is greater than 7.00.

With `CCOc1cc(C(=O)N(C)[C@H](CCN(CC)CC)c2cncc3cn[nH]c23)ccc1-c1cccc(F)c1` [Compound 103] as the compound, how does the pIC50 read?
The pIC50 was greater than 7.00.

`CCOc1cc(C(=O)N(C)[C@H](CCN2CCC2)c2cccc3cn[nH]c23)ccc1-c1cccc(F)c1` [Compound 217] was tested. Which pIC50 did it give?
Its pIC50 is greater than 7.00.

`CCOc1cc(C(=O)N(C)[C@H](CC[N+](C)(C)[O-])c2cncc3cn[nH]c23)ccc1-c1cccc(Cl)c1` [Compound 163] was tested. Which pIC50 did it give?
Its pIC50 is greater than 7.00.

How did the pIC50 turn out when `CN(C)CC[C@H](c1cncc2cn[nH]c12)N(C)C(=O)c1ccc(-c2cccc(C#N)c2)c(OC2CC2)c1` [Compound 149] was run?
The pIC50 was greater than 7.00.

How did the pIC50 turn out when `CCOc1cc(C(=O)N(Cc2cnc(C)c3cn[nH]c23)C2COC2)ccc1-c1cccc(F)c1` [Compound 054] was run?
Its pIC50 is less than 4.82.

How did the pIC50 turn out when `CCOc1cc(C(=O)N(C)[C@@H](c2cncc3cn[nH]c23)C2CN(C(C)C)C2)ccc1-c1cccc(F)c1` [Compound 175] was run?
Its pIC50 is greater than 7.00.

How did the pIC50 turn out when `CCOc1cc(C(=O)N(C)[C@H](c2cncc3cn[nH]c23)C2CNC2)ccc1-c1cccc(C)c1` [Compound 170] was run?
Its pIC50 is greater than 7.00.

With `CCOc1cc(C(=O)N(C)[C@H](CCN(C)CCF)c2cncc3cn[nH]c23)ccc1-c1ccccc1` [Compound 155] as the compound, how does the pIC50 read?
The pIC50 was greater than 7.00.

`CCc1ncc([C@@H](CO)N(C)C(=O)c2ccc(-c3cccc(F)c3)c(OC3CC3)c2)c2[nH]ncc12` [Compound 034] was tested. Which pIC50 did it give?
The pIC50 was less than 4.82.

How did the pIC50 turn out when `CCOc1cc(C(=O)N(C[C@@H](C)O)[C@H](C)c2cnc(C)c3cn[nH]c23)ccc1-c1cccc(F)c1` [Compound 058] was run?
The pIC50 was greater than 7.00.

How did the pIC50 turn out when `CCOc1cc(C(=O)N(C)[C@@H](CN(CC)CC)c2cncc3cn[nH]c23)ccc1-c1cccc(F)c1` [Compound 128] was run?
The pIC50 was greater than 7.00.

`CCOc1cc(C(=O)N(CCN2C[C@H](F)C[C@H](F)C2)Cc2cncc3cn[nH]c23)ccc1-c1cccc(F)c1` [Compound 106] was tested. Which pIC50 did it give?
The pIC50 was greater than 7.00.

`CCOc1cc(C(=O)N(C)[C@@H](c2cncc3cn[nH]c23)C2CN(C)C2)ccc1-c1ccccc1` [Compound 178] was tested. Which pIC50 did it give?
The pIC50 was greater than 7.00.

`CCOc1cc(C(=O)N(Cc2cccc3cn[nH]c23)[C@H]2C[C@@H](N)C2)ccc1-c1cccc(C#N)c1` [Compound 292] was tested. Which pIC50 did it give?
Its pIC50 is greater than 7.00.

With `CCOc1cc(C(=O)N(C)[C@H](CN(C)C)c2cccc3cn[nH]c23)ccc1-c1cccc(Cl)c1` [Compound 220] as the compound, how does the pIC50 read?
The pIC50 was 6.30 to 7.00.

With `CCOc1cc(C(=O)N(C)[C@H](CCN(C)CCF)c2cncc3cn[nH]c23)ccc1-c1cccc(Cl)c1` [Compound 067] as the compound, how does the pIC50 read?
The pIC50 was greater than 7.00.

`CCOc1cc(C(=O)N(C)[C@H](CCNC)c2cncc3cn[nH]c23)ccc1-c1cc(F)cc(C#N)c1` [Compound 280] was tested. Which pIC50 did it give?
The pIC50 was greater than 7.00.

`CCOc1cc(C(=O)N(C)C(CN(C)C)c2cncc3cn[nH]c23)ccc1-c1ccccc1` (centres unmarked) [Compound 226] was tested. Which pIC50 did it give?
The pIC50 was 6.30 to 7.00.

How did the pIC50 turn out when `CCOc1cc(C(=O)N(C)[C@@H](c2cccc3cn[nH]c23)C2CN(C)C2)ccc1-c1cccc(Cl)c1` [Compound 282] was run?
The pIC50 was greater than 7.00.

`CCOc1cc(C(=O)N(C)[C@H](c2cncc3cn[nH]c23)C2CN(CC)C2)ccc1-c1cccc(C)c1` [Compound 171] was tested. Which pIC50 did it give?
The pIC50 was greater than 7.00.

With `CCOc1cc(C(=O)N(C)[C@H](CC[N+](C)(C)[O-])c2cncc3cn[nH]c23)ccc1-c1cccc(F)c1` [Compound 145] as the compound, how does the pIC50 read?
The pIC50 was 4.82 to 6.00.

`CCOc1cc(C(=O)N(C)[C@H](CN(C)C)c2cncc3cn[nH]c23)ccc1C(C)C` [Compound 208] was tested. Which pIC50 did it give?
The pIC50 was 4.82 to 6.00.

How did the pIC50 turn out when `CN(C(=O)c1ccc(-c2cccc(F)c2)c(OC2CC2)c1)[C@@H](CCO)c1cncc2cn[nH]c12` [Compound 011] was run?
Its pIC50 is 4.82 to 6.00.

With `CCOc1cc(C(=O)N(C)[C@@H](c2cncc3cn[nH]c23)C2CNC2)ccc1-c1cccc(C#N)c1` [Compound 141] as the compound, how does the pIC50 read?
The pIC50 was greater than 7.00.

How did the pIC50 turn out when `CCOc1cc(C(=O)N(Cc2cncc3cn[nH]c23)[C@H]2CC[C@H]2N)ccc1-c1cccc(F)c1` [Compound 300] was run?
Its pIC50 is 6.30 to 7.00.

How did the pIC50 turn out when `CCOc1cc(C(=O)N(C)[C@H](c2cncc3cn[nH]c23)C2CN(CC)C2)ccc1-c1cccc(F)c1` [Compound 174] was run?
Its pIC50 is greater than 7.00.

How did the pIC50 turn out when `CCOc1cc(C(=O)N(C)[C@H](CCN(CCF)CCF)c2cncc3cn[nH]c23)ccc1-c1cccc(F)c1` [Compound 064] was run?
The pIC50 was greater than 7.00.

With `CCOc1cc(C(=O)N(C)[C@H](c2cncc3cn[nH]c23)C2CN(C)C2)ccc1-c1cccc(C#N)c1` [Compound 144] as the compound, how does the pIC50 read?
Its pIC50 is greater than 7.00.

How did the pIC50 turn out when `CCOc1cc(C(=O)N(CCN2CCCCC2)Cc2cncc3cn[nH]c23)ccc1-c1ccccc1` [Compound 112] was run?
The pIC50 was greater than 7.00.

With `CCOc1cc(C(=O)N(C)[C@H](CC[N+](C)(C)[O-])c2cccc3cn[nH]c23)ccc1-c1cccc(F)c1` [Compound 227] as the compound, how does the pIC50 read?
The pIC50 was greater than 7.00.

`CCOc1cc(C(=O)N(C)[C@H](CCN(C)CCF)c2cncc3cn[nH]c23)ccc1-c1cccc(F)c1` [Compound 095] was tested. Which pIC50 did it give?
Its pIC50 is greater than 7.00.

With `CCOc1cc(C(=O)N(C)[C@H](CO)c2cnc(C)c3cn[nH]c23)ccc1-c1cc(C)cc(F)c1` [Compound 021] as the compound, how does the pIC50 read?
The pIC50 was 6.30 to 7.00.

How did the pIC50 turn out when `CCOc1cc(C(=O)N(C)[C@@H](CN2CC(N(C)C)C2)c2cncc3cn[nH]c23)ccc1-c1cccc(F)c1` [Compound 187] was run?
The pIC50 was greater than 7.00.

`CCOc1cc(C(=O)N(Cc2cncc3cn[nH]c23)[C@H]2C[C@@H](N)C2)ccc1-c1cccc(C#N)c1` [Compound 289] was tested. Which pIC50 did it give?
Its pIC50 is greater than 7.00.

`CCOc1cc(C(=O)N(C)[C@H](CCNC(=O)CC)c2cncc3cn[nH]c23)ccc1-c1cccc(F)c1` [Compound 147] was tested. Which pIC50 did it give?
Its pIC50 is greater than 7.00.

`CCOc1cc(C(=O)N(C)[C@H](CC[N+](C)(C)[O-])c2cccc3cn[nH]c23)ccc1-c1cccc(Cl)c1` [Compound 206] was tested. Which pIC50 did it give?
Its pIC50 is greater than 7.00.

How did the pIC50 turn out when `CCOc1cc(C(=O)N(Cc2cnc(C)c3cn[nH]c23)[C@@H]2CC[C@H]2O)ccc1-c1cccc(F)c1` [Compound 057] was run?
Its pIC50 is 6.30 to 7.00.

With `CCOc1cc(C(=O)N(C)[C@@H](CCO)c2cnc(C)c3cn[nH]c23)ccc1-c1cccc(C#N)c1` [Compound 030] as the compound, how does the pIC50 read?
The pIC50 was less than 4.82.

How did the pIC50 turn out when `CCOc1cc(C(=O)N(C)[C@H](c2cncc3cn[nH]c23)C2CNC2)ccc1-c1cccc(F)c1` [Compound 092] was run?
The pIC50 was 6.30 to 7.00.

How did the pIC50 turn out when `CCOc1cc(C(=O)N(C)[C@H](CC[N+](C)([O-])CC)c2cncc3cn[nH]c23)ccc1-c1cccc(Cl)c1` (some centres unmarked) [Compound 254] was run?
The pIC50 was greater than 7.00.

With `CCOc1cc(C(=O)N(C)[C@H](CCN(C)C)c2cncc3cn[nH]c23)ccc1C1CC1` [Compound 146] as the compound, how does the pIC50 read?
The pIC50 was 6.30 to 7.00.

`CCOc1cc(C(=O)N(C)C(CCN(C)C)c2cccc3cn[nH]c23)ccc1-c1ccccc1` (centres unmarked) [Compound 135] was tested. Which pIC50 did it give?
Its pIC50 is greater than 7.00.

`CCOc1cc(C(=O)N(C)[C@@H](CCN(C)C)c2cccc3cn[nH]c23)ccc1-c1ccccc1` [Compound 212] was tested. Which pIC50 did it give?
Its pIC50 is greater than 7.00.

How did the pIC50 turn out when `CCOc1cc(C(=O)N(C)[C@@H](CCN)c2cnc(C)c3cn[nH]c23)ccc1C` [Compound 299] was run?
The pIC50 was 4.82 to 6.00.

How did the pIC50 turn out when `CCOc1cc(C(=O)N(C)[C@H](CCN(CC)CC)c2cccc3cn[nH]c23)ccc1-c1cccc(F)c1` [Compound 215] was run?
The pIC50 was greater than 7.00.

With `CCOc1cc(C(=O)N(C)[C@H](CO)c2cnc(CC)c3cn[nH]c23)ccc1-c1cccc(F)c1` [Compound 033] as the compound, how does the pIC50 read?
Its pIC50 is greater than 7.00.

How did the pIC50 turn out when `CN(C(=O)c1ccc(-c2cccc(F)c2)c(OC2CC2)c1)[C@H](CC[N+](C)(C)[O-])c1cncc2cn[nH]c12` [Compound 165] was run?
The pIC50 was greater than 7.00.

How did the pIC50 turn out when `CCOc1cc(C(=O)N(CCO)Cc2cnc(NC)c3cn[nH]c23)ccc1-c1cccc(C#N)c1` [Compound 044] was run?
Its pIC50 is 6.30 to 7.00.

How did the pIC50 turn out when `CCOc1cc(C(=O)N(C)[C@H](CCN2CC(F)(F)C2)c2cncc3cn[nH]c23)ccc1-c1cccc(F)c1` [Compound 101] was run?
Its pIC50 is greater than 7.00.
